Laboratory results taken from US8911984B2, “Tannase, gene encoding same, and process for producing same” (Amano Enzyme Inc., priority 2008, dated 2014).

Assays:
Tannase = test: Effect of metallic ion and inhibitor on tannase activity; format: biochemical, Aspergillus awamori; conditions: 30° C. 30 minutes, pH 5.0; for Relative activity (%): no addition = 100%
Procedure: 0.5 mL of a 50 mM citric acid buffer solution (pH 5.0) containing 1% tannic acid (Tannic acid, ACS Reagent [SIGMA]) is added with 0.5 ml of an enzyme solution, […], thereafter adding a 0.2 M acetic acid buffer solution (pH 5.0) containing 2% BSA to terminate the reaction. After terminating the reaction, the reaction solution is stood still in ice for 20 minutes and then centrifuged at 3,000 rpm for 20 minutes. The obtained supernatant is diluted 50 holds and an absorbance at a wavelength of 260 nm is measured. An analytical curve (standard curve) is formed using gallic acid and an enzyme amount that releases 1 μM of gallic acid for 1 minute is assumed to be 1 unit. […] The activity increased by addition of urea.

[1] = system: tannase derived from Aspergillus awamori; test: Substrate specificity of tannase (rhodanine method); format: biochemical; conditions: 0.17% tannic acid or 10 mM gallic acid ester, pH 5.0, 37° C., 30 minutes; tannic acid = 100%
Procedure: As described below, the method of Sharma (Anal. Biochem. 279, 85-89, 2000) was modified and substrate specificity was measured.
125 μL of a 50 mM citric acid buffer solution (pH 5.0) containing 0.17% tannic acid or 10 mM gallic acid esters (methyl gallate, ethyl gallate, propyl gallate, and isoamyl gallate) is added with 125 μL of an enzyme solution and incubated at 37° C. for 30 minutes, followed by adding and mixing 300 μL of methanol containing 0.667% Rhodanine, and the reaction solution is stood still for 10 minutes. Next, 200 μL of 0.5 N NaOH is added and mixed and the reaction solution is stood still for 10 minutes. Subsequently, the reaction solution is diluted with 9 mL of distilled water and left for 5 minutes, and an absorbance at a wavelength of 520 nm is measured. An analytical curve (standard curve) was formed using gallic acid and an activity that releases 1 μM of gallic acid for 1 minute is assumed to be 1 unit.
Substrate specificities to tannic acid and gallic acid esters (methyl gallate, ethyl gallate, propyl gallate, and isoamyl gallate) were measured in the above-mentioned measurement method of substrate specificity. When a dissolution activity to tannic acid was assumed to be 100%, a dissolution activity of each of the gallic acid esters was 41% for methyl gallate, 30% for ethyl gallate, 29% for propyl gallate, and 27% for isoamyl gallate.

[2] = Optimum reaction pH of tannase; format: biochemical; conditions: 37° C., 30 minutes, 1% tannic acid; citric acid buffer pH 3-6, phosphate buffer pH 6-8
Procedure: (§1) 0.5 mL of a 50 mM citric acid buffer solution (pH 5.0) containing 1% tannic acid (Tannic acid, ACS Reagent [SIGMA]) is added with 0.5 ml of an enzyme solution, and incubated at 37° C. for 30 minutes, thereafter adding a 0.2 M acetic acid buffer solution (pH 5.0) containing 2% BSA to terminate the reaction. After terminating the reaction, the reaction solution is stood still in ice for 20 minutes and then centrifuged at 3,000 rpm for 20 minutes. The obtained supernatant is diluted 50 holds and an absorbance at a wavelength of 260 nm is measured. An analytical curve (standard curve) is formed using gallic acid and an enzyme amount that releases 1 μM of gallic acid for 1 minute is assumed to be 1 unit.
The optimum reaction pH was measured under the reaction condition of 37° C. for 30 minutes in each buffer solution (citric acid buffer solutions at pH 3.0, 3.5, 4.0, 4.5, 5.0, 5.5 and 6.0, and phosphate buffer solutions at pH 6.0, 6.5, 7.0, 7.5 and 8.0) using 1% tannic acid for a substrate. Each measurement result was shown as a relative activity, assuming a value of a pH showing the maximum activity as 100% (FIG. 2). The optimum reaction pH was about 5.5.

[3] = Isoelectric point by isoelectric electrophoresis (PhastSystem); format: physicochemical
Procedure: When the isoelectric point of the present enzyme was measured by isoelectric electrophoresis using PhastSystem (GE Healthcare Bio-Sciences Ltd.), it was 6.4.

[4] = pH stability of purified tannase; format: biochemical; conditions: 30° C., 30 minutes
Procedure: as §1
The purified enzyme was treated in each buffer solution (citric acid buffer solutions at pH 3.0, 3.5, 4.0, 4.5, 5.0, 5.5 and 6.0, and phosphate buffer solutions at pH 6.0, 6.5, 7.0, 7.5 and 8.0) at 30° C. for 30 minutes and diluted 5 holds with a 0.2 M acetic acid buffer solution (pH 5.0), and an activity was measured in the above-mentioned measurement method of a tannase activity. Each measurement result was shown as a relative activity, assuming a value of a pH showing the maximum activity as 100% (FIG. 4). The stable pH range was from 3 to 8.

[5] = Thermostability of purified tannase (residual activity after thermal treatment); format: biochemical; conditions: 30 minutes, 50 mM citric acid buffer solution (pH 5.0)
Procedure: as §1
The purified enzyme was thermally treated for 30 minutes at each temperature of 30° C., 35° C., 40° C., 45° C., 50° C., 55° C., 60° C., 65° C., 70° C., 75° C. and 80° C. in a 50 mM citric acid buffer solution (pH 5.0), and a residual activity was then measured in the above-mentioned measurement method of a tannase activity. Each measurement result was shown as a residual activity, assuming a thermally untreated activity as 100% (FIG. 3). The purified enzyme had 90% or more of a residual activity in the thermal treatment at 65° C. for 30 minutes and was stable until 65° C.

[6] = Optimum reaction temperature of tannase; format: biochemical; conditions: 50 mM citric acid buffer solution (pH 5.0), 30-80° C. tested
Procedure: as §1
According to the above-mentioned measurement method of a tannase activity, the purified enzyme was reacted at reaction temperatures of 30° C., 35° C., 40° C., 45° C., 50° C., 55° C., 60° C., 65° C., 70° C., 75° C. and 80° C. Each measurement result was shown as a relative activity, assuming a value at a temperature showing the maximum activity as 100% (FIG. 1). The optimum reaction temperature was around 70° C.

Row | Molecule | Relative activity (%) (Tannase; 20 mM metallic ion or EDTA) | dissolution activity relative to tannic acid [1] [%] | other results
1 | [Cu+2] [Cu^2+] | 72 |  | 
2 | O=C(OC[C@H]1O[C@@H](OC(=O)c2cc(O)c(O)c(OC(=O)c3cc(O)c(O)c(O)c3)c2)[C@H](OC(=O)c2cc(O)c(O)c(OC(=O)c3cc(O)c(O)c(O)c3)c2)[C@@H](OC(=O)c2cc(O)c(O)c(OC(=O)c3cc(O)c(O)c(O)c3)c2)[C@@H]1OC(=O)c1cc(O)c(O)c(OC(=O)c2cc(O)c(O)c(O)c2)c1)c1cc(O)c(O)c(OC(=O)c2cc(O)c(O)c(O)c2)c1 [tannic acid] |  | 100 | 
3 | [Mg+2] [Mg^2+] | 118 |  | 
4 | [Ca+2] [Ca^2+] | 109 |  | 
5 | COC(=O)c1cc(O)c(O)c(O)c1 [methyl gallate] |  | 41 | 
6 | CC(C)CCOC(=O)c1cc(O)c(O)c(O)c1 [isoamyl gallate] |  | 27 | 
7 | [Fe+3] [Fe^3+] | 91 |  | 
8 | [Mn+2] [Mn^2+] | 98 |  | 
9 | [Zn+2] [Zn^2+] | 82 |  | 
10 | NC(N)=O [Urea, urea] |  |  | effect on tannase activity (in words) (Tannase): increased; Relative activity (%) (Tannase; urea 0.4 M): 108%; Relative activity (%) (Tannase; urea 0.8 M): 117%; Relative activity (%) (Tannase; urea 2 M): 150%; Relative activity (%) (Tannase; urea 4 M): 197%
11 | CCOC(=O)c1cc(O)c(O)c(O)c1 [ethyl gallate] |  | 30 | 
12 | O=C(O)CN(CCN(CC(=O)O)CC(=O)O)CC(=O)O [EDTA] | 101 |  | 
13 | CCCOC(=O)c1cc(O)c(O)c(O)c1 [propyl gallate] |  | 29 | 
14 | purified enzyme: tannase purified from Aspergillus awamori NBRC-4033 (IFO-4033), amino acid sequence SEQ ID NO: 5 (protein, listed as Aspergillus awamorii) MRSPAWASIAITAFAALANAGTPSTLAELCTDSIVKAALPPSEFIKGITIDSDSVTTEVVTNSSFSSEFYPSATIDYCNVTFAYSHDGIDGDQVLLEIWLPAPTNFKNRWLSTGGGGYAINSGDQSLPGGVMYGAASGMTDGGFGGFSNNADTAMLLANGTLNYETLYMFAYKAHRELSLLGKALTRNVYGMSDSDKLYAYYQGCSEGGREGWSQVQRFGDEWDGAIIGAPAFRWSFQQTQHLYSNIVEKTLDYYPPPCELDKIVNETIAACDAMDGKVDWVVARTDLCLLDFDISTIEGKPYSCAASRGTPAQNGTVSAKGIEVAKTIINGLHDSQGRRVYFSYQPTAAFDDAETQYNSTTGQWGLDIDQLGGEYIALLVDKNGTTLDSLDGITYDTLKDWMISGLQEYYSTLQTTWPDLTPFHNAGGKVIHFHGDADFSIPTAASIRYWESVRSIMYPNKDYNSSAEALNEWYRLYTVPGAGHCATNDAMPNGPFPQTNMAVMIDWVENGVVPTTLNATVLQGENEGQNQQLCAWPLRPLWTNNGTTMECVYNQRSIDSWHYDLDAVPMPVY |  |  | optimum reaction pH [2]: about 5.5; isoelectric point [3]: 6.4; activity with respect to the maximum activity after treatment within pH 3 to 8 [4]: ≥ 80%; residual activity after thermal treatment ([5]; 65° C., untreated = 100%): ≥ 90%; temperature up to which enzyme is stable [5]: ≤ 65 °C; optimum reaction temperature [6]: around 70 °C
